In US11939319B2, “Pyridinyl and pyrazinyl-(asa)indolsulfonamides” (UCB Pharma GmbH, priority 2018, dated 2024):

Biological target: T1, GPR17 (Homo sapiens, UniProt Q13304)
Assay: Calcium mobilization functional assay (Ca2+ assay) in CHO hGPR17 cells
Assay type: cell-based
Parameters: host or cells: Flp-In T-REx CHO cells, expression induced with doxycycline
Conditions: inhibition of 50 nM MDL29,951 (GPR17 agonist), activity range, read-out: Ca^2+ assay pIC50 (converted)
Protocol: (§1) Flp-In T-REx CHO cells stably expressing human GPR17 receptor (CHO hGPR17) from Evi Kostenis' lab (Bonn University, Germany) were cultured at 37° C. in a humidified atmosphere of 5% CO2. Cells were grown in DMEM with Nutrient Mixture F-12 supplemented with hygromycin B (500 μg/ml) and blasticidin (30 μg/ml). Expression from the Flp-In locus was induced by treatment with doxycycline (1 μg/ml) for 16-20 h prior assays.
GPR17 is a G-protein coupled receptor. GPR17 activation triggers Gq-type G-protein signaling resulting in endoplasmic reticulum calcium (Ca^2+) stores release in cytosol which can be measured using Calcium 5 dye, a fluorescent indicator dye of cytosolic Ca^2+ levels. The compounds of the present invention were assessed either in the Ca^2+ assay or in the GPR17 cAMP assay, described further below.
CHO hGPR17 were defrosted and seeded at a density of 20,000 cells per well into black 384-well plates with clear bottom. Cells were incubated overnight at 37° C. in a humidified atmosphere of 5% CO2. Sixteen to twenty hours after seeding, CHO hGPR17 were loaded for 60 min with Calcium 5 dye, a cytosolic Ca^2+ indicator fluorescent dye, according to manufacturer's instructions. Fluorescent signal relative to cytosolic Ca^2+ concentration was recorded over time at room temperature in FLIPR Tetra reader. Cells were first incubated for 30 minutes at room temperature in HBSS Hepes buffer pH 7.4 containing increasing concentrations of test compounds (typically 10^−11 M to 10^−6M). Then, 50 nM MDL29,951, a GPR17 agonist, was added to the cells. Inhibitory effects of varying concentrations test compounds were measured and resulting pIC50S were determined. All incubations were performed in duplicate and results were compared to a concentration response curve of GPR17 agonist and antagonist reference compounds. Analysis and curve fitting were performed in ActivityBase XE using XLfit 4-parameter logistic equation y=A+((B−A)/(1+((C/x)^D))) where A, B, C and D stand for minimum y, maximum y, IC50 and slope, respectively.
The activities of the Example compounds tested are depicted in the table 6 in Section B-IIB below. The activity ranges A, B and C refer to pIC50 values in the Ca^2+ assay as follows: “A”: pIC50 6.5≤x<7.5, “B”: pIC50 7.5≤x<8.5, “C”: 8.5≤pIC50

T1 sequence (Q13304 29-367 limits assumed): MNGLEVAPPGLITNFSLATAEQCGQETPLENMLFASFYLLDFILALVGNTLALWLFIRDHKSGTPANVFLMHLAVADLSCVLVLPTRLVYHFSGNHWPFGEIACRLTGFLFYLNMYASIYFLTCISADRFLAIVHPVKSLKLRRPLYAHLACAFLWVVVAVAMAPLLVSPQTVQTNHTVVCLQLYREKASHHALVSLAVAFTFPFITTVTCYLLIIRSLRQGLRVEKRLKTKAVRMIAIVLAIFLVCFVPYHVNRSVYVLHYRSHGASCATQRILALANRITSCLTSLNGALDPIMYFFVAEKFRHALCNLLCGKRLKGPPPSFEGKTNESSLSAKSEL

IC50 [nM] | Structure (SMILES)
31.6 to 316 | O=S(=O)(Nc1cc(F)cnc1F)c1c[nH]c2cc(Cl)ccc12 [Example I-1, 6-chloro-N-(2,5-difluoropyridin-3-yl)-1H-indole-3-sulfonamide]
≤ 3.16 | O=S(=O)(Nc1cc(F)c(Cl)nc1F)c1c[nH]c2cc(Cl)ccc12 [Example I-2, 6-chloro-N-(6-chloro-2,5-difluoropyridin-3-yl)-1H-indole-3-sulfonamide]
3.16 to 31.6 | COc1nc(Cl)c(F)cc1NS(=O)(=O)c1c[nH]c2cc(Cl)ccc12 [Example I-3, 6-chloro-N-(6-chloro-5-fluoro-2-methoxypyridin-3-yl)-1H-indole-3-sulfonamide]
31.6 to 316 | COc1cc(NS(=O)(=O)c2c[nH]c3cc(Cl)ccc23)c(F)nc1Cl [Example I-4, 6-chloro-N-(6-chloro-2-fluoro-5-methoxypyridin-3-yl)-1H-indole-3-sulfonamide]
3.16 to 31.6 | COc1nc(F)c(NS(=O)(=O)c2c[nH]c3cc(Cl)ccc23)cc1F [Example I-5, 6-chloro-N-(2,5-difluoro-6-methoxypyridin-3-yl)-1H-indole-3-sulfonamide]
31.6 to 316 | COc1ccc(NS(=O)(=O)c2c[nH]c3cc(Cl)ccc23)c(Cl)n1 [Example I-8, 6-chloro-N-(2-chloro-6-methoxypyridin-3-yl)-1H-indole-3-sulfonamide]
31.6 to 316 | COc1ncc(Cl)cc1NS(=O)(=O)c1c[nH]c2cc(Cl)ccc12 [Example I-17, 6-chloro-N-(5-chloro-2-methoxypyridin-3-yl)-1H-indole-3-sulfonamide]
31.6 to 316 | N#Cc1ccc(NS(=O)(=O)c2c[nH]c3cc(Cl)ccc23)cn1 [Example I-19, 6-chloro-N-(6-cyanopyridin-3-yl)-1H-indole-3-sulfonamide]
31.6 to 316 | O=S(=O)(Nc1ccc(Br)nc1)c1c[nH]c2cc(Cl)ccc12 [Example I-20, N-(6-bromopyridin-3-yl)-6-chloro-1H-indole-3-sulfonamide]
31.6 to 316 | O=S(=O)(Nc1cnc(Cl)c(F)c1)c1c[nH]c2cc(Cl)ccc12 [Example I-23, 6-chloro-N-(6-chloro-5-fluoropyridin-3-yl)-1H-indole-3-sulfonamide]
31.6 to 316 | O=S(=O)(Nc1ccc(Cl)nc1)c1c[nH]c2cc(Cl)ccc12 [Example I-24, 6-chloro-N-(6-chloropyridin-3-yl)-1H-indole-3-sulfonamide]
31.6 to 316 | COc1ccc(NS(=O)(=O)c2c[nH]c3c2ccc2ccccc23)c(OC)n1 [Example I-70, N-(2,6-dimethoxypyridin-3-yl)-1H-benzo[g]indole-3-sulfonamide]

Biological target: T1, GPR17
Assay: cAMP accumulation functional assay (HTRF) in CHO hGPR17 cells
Assay type: cell-based
Parameters: host or cells: Flp-In T-REx CHO cells, expression induced with doxycycline
Conditions: Schild analysis against MDL29,951, 5 μM forskolin, activity range, read-out: cAMP assay pA2 (converted)
Protocol: as §1
GPR17 activation can also recruit Gi-type G-protein signaling, resulting in a decrease of intracellular cyclic adenosine monophosphate (cAMP). Intracellular cAMP changes can be measured using the HTRF cAMP dynamic assay kit from CisBio (Codolet, France). Using homogenous time-resolved fluorescence technology (HTRF), the assay is based on competition between native cAMP produced by cells and cAMP labelled with the dye d2. The tracer binding was determined by an anti-cAMP antibody labeled with cryptate.
CHO hGPR17 were detached with PBS containing EDTA and dispatched in black 384-well plates with 5,000 cells per well. Cells were first incubated for 30 minutes at room temperature in HBSS Hepes (pH 7.4) containing vehicle or varying concentrations of test GPR17 antagonist/inverse agonist compounds. Then, a dose response curve of MDL29,951 GPR17 agonist (typically from 10^−5M to 10^−10M) was added on vehicle and on each test GPR17 antagonist/inverse agonist compound concentration in a final volume of 20 μL HBSS Hepes buffer (pH 7.4) containing 1% DMSO, 5 μM forskolin and 0.1 mM IBMX. After 60 minutes incubation at room temperature, the reaction is terminated and the cells lysed by adding the d2 detection reagent and the cryptate reagent in 10 μL lysis buffer each according to manufacturer's instructions. After 60 minutes incubation, changes in cAMP concentrations are measured according to manufacturer's instructions using an Envision plate reader with laser excitation. All incubations were performed in duplicate. Data was analyzed using GraphPad Prism software using the 4-parameter logistic equation to measure MDL29,951 pEC50s in absence and presence of GPR17 antagonist/inverse agonist test compounds. Dose ratio (DR) were plotted against antagonist concentrations and Schild analysis provided estimated affinity pA2 of GPR17 antagonist/inverse agonist test compounds.
The activities of the Example compounds tested are depicted in the table below. The activity ranges A, B and C refer to pA2 values in the cAMP assay as follows: “A”: pA2 6.5≤x<7.5, “B”: pA2 7.5≤x<8.5, “C”: 8.5≤pA2.

Kb [nM] | Structure (SMILES)
3.16 to 31.6 | O=S(=O)(Nc1cc(F)c(Cl)nc1F)c1c[nH]c2cc(Cl)ccc12 [Example I-2, 6-chloro-N-(6-chloro-2,5-difluoropyridin-3-yl)-1H-indole-3-sulfonamide]
≤ 3.16 | COc1nc(Cl)c(F)cc1NS(=O)(=O)c1c[nH]c2cc(Cl)ccc12 [Example I-3, 6-chloro-N-(6-chloro-5-fluoro-2-methoxypyridin-3-yl)-1H-indole-3-sulfonamide]
3.16 to 31.6 | COc1nc(F)c(NS(=O)(=O)c2c[nH]c3cc(Cl)ccc23)cc1F [Example I-5, 6-chloro-N-(2,5-difluoro-6-methoxypyridin-3-yl)-1H-indole-3-sulfonamide]
3.16 to 31.6 | COc1nc(OC)c(NS(=O)(=O)c2c[nH]c3nc(C(F)F)ccc23)cc1F [Example I-56, 6-(difluoromethyl)-N-(5-fluoro-2,6-dimethoxypyridin-3-yl)-1H-pyrrolo[2,3-b]pyridine-3-sulfonamide]
3.16 to 31.6 | Cc1nc(F)c(NS(=O)(=O)c2c[nH]c3nc(C(F)F)ccc23)cc1F [Example I-57, 6-(difluoromethyl)-N-(2,5-difluoro-6-methylpyridin-3-yl)-1H-pyrrolo[2,3-b]pyridine-3-sulfonamide]
≤ 3.16 | COc1nc(OCCOC(F)F)c(F)cc1NS(=O)(=O)c1c[nH]c2nc(C(F)F)ccc12 [Example I-58, N-[6-[2-(difluoromethoxy)ethoxy]-5-fluoro-2-methoxypyridin-3-yl]-6-(difluoromethyl)-1H-pyrrolo[2,3-b]pyridine-3-sulfonamide]
≤ 3.16 | COc1nc(OC(F)F)c(F)cc1NS(=O)(=O)c1c[nH]c2cc(C)ccc12 [Example I-60, N-[6-(difluoromethoxy)-5-fluoro-2-methoxypyridin-3-yl]-6-methyl-1H-indole-3-sulfonamide]
31.6 to 316 | COc1ccc(NS(=O)(=O)c2c[nH]c3cc(Cl)ccc23)c(OC)n1 [Example I-61, 6-chloro-N-(2,6-dimethoxypyridin-3-yl)-1H-indole-3-sulfonamide]
≤ 3.16 | COc1nc(OCC(F)F)c(F)cc1NS(=O)(=O)c1c[nH]c2cc(C(F)F)ccc12 [Example I-62, N-[6-(2,2-difluoroethoxy)-5-fluoro-2-methoxypyridin-3-yl]-6-(difluoromethyl)-1H-indole-3-sulfonamide]
≤ 3.16 | COc1ccc2c(S(=O)(=O)Nc3cc(F)c(OC(F)F)nc3OC)c[nH]c2c1 [Example I-63, N-[6-(difluoromethoxy)-5-fluoro-2-methoxypyridin-3-yl]-6-methoxy-1H-indole-3-sulfonamide]
≤ 3.16 | COc1ccc2c(S(=O)(=O)Nc3cc(F)c(OCC(F)F)nc3OC)c[nH]c2c1 [Example I-64, N-[6-(2,2-difluoroethoxy)-5-fluoro-2-methoxypyridin-3-yl]-6-methoxy-1H-indole-3-sulfonamide]
3.16 to 31.6 | COc1nc(OCC(F)F)c(F)cc1NS(=O)(=O)c1c[nH]c2cc(C#N)ccc12 [Example I-65, 6-cyano-N-[6-(2,2-difluoroethoxy)-5-fluoro-2-methoxypyridin-3-yl]-1H-indole-3-sulfonamide]
≤ 3.16 | COc1nc(OC(F)F)c(F)cc1NS(=O)(=O)c1c[nH]c2cc(C#N)ccc12 [Example I-66, 6-cyano-N-[6-(difluoromethoxy)-5-fluoro-2-methoxypyridin-3-yl]-1H-indole-3-sulfonamide]
≤ 3.16 | O=S(=O)(Nc1cc(F)c(OCC(F)F)nc1F)c1c[nH]c2cc(Cl)ccc12 [Example I-67, 6-chloro-N-[6-(2,2-difluoroethoxy)-2,5-difluoropyridin-3-yl]-1H-indole-3-sulfonamide]
≤ 3.16 | COc1nc(OC(F)F)c(F)cc1NS(=O)(=O)c1c[nH]c2c1ccc1cccnc12 [Example I-68, N-[6-(difluoromethoxy)-5-fluoro-2-methoxypyridin-3-yl]-1H-pyrrolo[3,2-h]quinoline-3-sulfonamide]
≤ 3.16 | COc1nc(OCC(F)F)c(F)cc1NS(=O)(=O)c1c[nH]c2c1ccc1cccnc12 [Example I-69, N-[6-(2,2-difluoroethoxy)-5-fluoro-2-methoxypyridin-3-yl]-1H-pyrrolo[3,2-h]quinoline-3-sulfonamide]
≤ 3.16 | COc1nc(OCC(F)F)c(F)cc1NS(=O)(=O)c1c[nH]c2nc(Cl)c(Br)cc12 [Example I-71, 5-bromo-6-chloro-N-[6-(2,2-difluoroethoxy)-5-fluoro-2-methoxypyridin-3-yl]-1H-pyrrolo[2,3-b]pyridine-3-sulfonamide]
31.6 to 316 | COc1nc(Cl)c(F)cc1NS(=O)(=O)c1c[nH]c2nc(OCc3ccccc3)ccc12 [Example I-72, N-(6-chloro-5-fluoro-2-methoxypyridin-3-yl)-6-phenylmethoxy-1H-pyrrolo[2,3-b]pyridine-3-sulfonamide]
